Source: patent US8853424B2 (Japan Science and Technology Agency, priority 2008, dated 2014)

Legend:
[1] = test system: transglutaminase (TGase); experiment: Measurement of TG (TGase inhibitory activity, monodansyl cadaverine / N,N-dimethylcasein fluorescence, FDSS 3000); format: biochemical
How it was run: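 Compound (1 μL of 10 mM stock) added to 0.1 mL reaction: 100 mM HEPES-NaOH pH 7.5, 1 mM CaCl2, 20 μM monodansyl cadaverine, 0.05 mg/mL N,N-dimethylcasein, 5 μg/mL TGase. Rate of fluorescence change at 340 nm measured; DMSO control set to 100; TG50 is the concentration halving activity.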

[2] = test system: Truncated N-terminal huntington 150 Q-EGFP-Neuron 2a cells; experiment: Measurement of x-Fold (polyglutamine aggregation inhibitory activity); format: cell-based
Protocol: In the present invention, the polyglutamine aggregation inhibitory activity (x-Fold) can be measured, for example, by the method described in the Example.
The number of the aggregated cells, and the total number of cells were counted by Array Scan V T1 (manufactured by Cellomics, Pittuburg, USA), and the ratio of the aggregated cells to the total number of cells was determined (x-Fold). […]

[3] = test system: SOC (store operated calcium channel); experiment: Measurement of SOC IC50 (thapsigargin store depletion, calcium re-addition, CHO cells); format: cell-based; details: CHO cells, 1 μM thapsigargin, 2 mM calcium chloride; read-out: SOC IC50
Protocol: The SOC (store operated calcium channel)-suppressive action can be measured by the method described in the Example and using, for example, FDSS 3000.
CHO cell culture medium was replaced with a BSS solution which is an extracellular fluidfree of calcium, the compound of the present invention was added 1 min later, and 1 μM thapsigargin was allowed to act thereon 2 min later to deplete intracellular calcium store. […]

[4] = TGase activity with compound (10 mM, 1 μL in 0.1 ml enzyme reaction solution), DMSO control taken as 100
[5] = TGase inhibitory activity measurement, unit not given
[6] = polyglutamine aggregation, Truncated N-terminal huntington 150 Q-EGFP-Neuron 2a cells
[7] = ratio of aggregated cells to total number of cells, compound 20 μM, 20 hr, almost 1 without compound, smaller = stronger inhibition

Structure (SMILES)	TGase activity remaining (% of DMSO control = 100) [1, 4]	TGase activity remaining (% of DMSO control = 100) [1, 5]	IC50 [3] [µM]	TGase activity remaining (% of DMSO control = 100) ([1]; TGase inhibitory activity measurement, unit not given, listed as 3031)	x-Fold [2, 6]	x-Fold [2, 7]	x-Fold ([2]; polyglutamine aggregation, Truncated N-terminal huntington 150 Q-EGFP-Neuron 2a cells, listed as 3031)
NC(=O)CCC(N)C(=O)OB(c1ccccc1)c1cccc(COCc2cccc(B(OC(=O)C(N)CCC(N)=O)c3ccccc3)c2)c1 (stereo not shown) [Example 471, bis(3,3′-(phenyl-glutamineboryl)benzyl)ether]	52	52	0.6		1.04	1.04	
NCCC(N)C(=O)OB(c1ccccc1)c1cccc(COCc2cccc(B(OC(=O)C(N)CCN)c3ccccc3)c2)c1 (stereo not shown) [Example 472, bis(3,3′-(phenyl-2,4-diaminobutyric acid boryl)benzyl)ether]	47	47	1		0.95	0.95	
NCCCCC(N)C(=O)OB(c1ccccc1)c1cccc(COCc2cccc(B(OC(=O)C(N)CCCCN)c3ccccc3)c2)c1 (stereo not shown) [Example 475, bis(3,3′-(phenyl-lysineboryl)benzyl)ether]	21	21	0.6		1.01	1.01	
NCCCC(N)C(=O)OB(c1ccccc1)c1cccc(COCc2cccc(B(OC(=O)C(N)CCCN)c3ccccc3)c2)c1 (stereo not shown) [Example 476, bis(3,3′-(phenyl-ornithineboryl)benzyl)ether]	103	103	1.5		0.95	0.95	

Compounds with a lower IC50 [3], results first:

TGase activity remaining (% of DMSO control = 100) [1, 4]	TGase activity remaining (% of DMSO control = 100) [1, 5]	IC50 [3] [µM]	TGase activity remaining (% of DMSO control = 100) ([1]; TGase inhibitory activity measurement, unit not given, listed as 3031)	Structure (SMILES)	x-Fold [2, 6]	x-Fold [2, 7]	x-Fold ([2]; polyglutamine aggregation, Truncated N-terminal huntington 150 Q-EGFP-Neuron 2a cells, listed as 3031)
	−4	0.5		CCCCNCCOB(c1ccccc1)c1cccc(COCc2cccc(B(OCCNCCCC)c3ccccc3)c2)c1 [Example 473, bis(3,3′-(phenyl-N-butylaminoethoxyboryl)benzyl)ether]	0.96	0.96	
145		0.5	145	NC(=O)CC(N)C(=O)OB(c1ccccc1)c1cccc(COCc2cccc(B(OC(=O)C(N)CC(N)=O)c3ccccc3)c2)c1 (stereo not shown) [Example 474, bis(3,3′-(phenyl-asparagineboryl)benzyl)ether]		1.04	1.04
35	35	0.3		NCC(OB(c1ccccc1)c1cccc(COCc2cccc(B(OC(CN)c3ccccc3)c3ccccc3)c2)c1)c1ccccc1 (stereo not shown) [Example 468, bis(3,3′-(phenyl-2-amino-1-phenylethoxyboryl)benzyl)ether]	0.98	0.98	
19	19	0.3		CC(CNCCN)OB(c1ccccc1)c1cccc(COCc2cccc(B(OC(C)CNCCN)c3ccccc3)c2)c1 (stereo not shown) [Example 470, bis(3,3′-(phenyl-N-aminoethyl-1-methyl-2-aminoethoxyboryl)benzyl)ether]	1.02	1.02	
60	60	0.25		c1ccc(B(OCc2ccccn2)c2cccc(COCc3cccc(B(OCc4ccccn4)c4ccccc4)c3)c2)cc1 [Example 467, bis(3,3′-(phenyl-2-pyridylmethoxyboryl)benzyl)ether]	0.98	0.98	
15	15	0.25		CNCCOB(c1ccccc1)c1cccc(COCc2cccc(B(OCCNC)c3ccccc3)c2)c1 [Example 469, bis(3,3′-(phenyl-N-methylaminoethoxyboryl)benzyl)ether]	0.94	0.94	
